System: Escherichia coli strain ATCC25922
Experiment: standard microdilution assay to determine minimum inhibitory concentrations (MICs)
Type: cell-based
Details: Escherichia coli strain ATCC25922, microdilution
Method in brief: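 E. coli strain ATCC25922 tested per CLSI microdilution methodology (about 100 microliters per well) to find minimum inhibitory concentrations. Activity scored categorically at a 16 micrograms/ml threshold.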

| Structure (SMILES) | E. coli ATCC25922 MIC |
| --- | --- |
| CNCc1ccc(-n2cc3cc(-c4ccc(S(=O)(=O)N(Cc5ccc6nonc6c5)C5CCNCC5)cc4)[nH]c3nc2=O)cc1 [Compound 962] | − (a “−” indicates that the compound has an MIC value greater than 16 micrograms/ml) |
| CN(C)Cc1ccc(-n2cc3cc(-c4ccc(S(=O)(=O)N(CCCN5CCCCC5)C5CCNCC5)cc4)[nH]c3nc2=O)cc1 [Compound 987] | − (a “−” indicates that the compound has an MIC value greater than 16 micrograms/ml) |
| COCc1cc(OCC(F)CN)cc(-c2cc3cn(-c4ccc(CNCCCNC(=N)N)cc4)c(=O)nc3[nH]2)c1 (centres unmarked) [Compound 2036a] | + (a “+” indicates that the compound has an MIC value of 16 micrograms/ml or less) |
| N=C(N)NCCCNCc1ccc(-n2cc3cc(-c4cc(F)cc(CCCCN)c4)[nH]c3nc2=O)cc1 [Compound 2085a] | + (a “+” indicates that the compound has an MIC value of 16 micrograms/ml or less) |
| N=C(N)NCCCNC(=O)c1ccc(-n2cc3cc(-c4ccc(S(=O)(=O)NC5CNC5)cc4)[nH]c3nc2=O)cc1 [Compound 1268] | + (a “+” indicates that the compound has an MIC value of 16 micrograms/ml or less) |
| N=C(N)NCCCNCc1ccc(-n2cc3cc(-c4ccc(S(=O)(=O)N(CC5COc6ccccc6O5)C5CCOCC5)cc4)[nH]c3nc2=O)cc1 (centres unmarked) [Compound 877] | − (a “−” indicates that the compound has an MIC value greater than 16 micrograms/ml) |
| NCc1ccc(-n2cc3cc(-c4ccc(S(=O)(=O)N(CC5CC5)C5CCNCC5)cc4)[nH]c3nc2=O)cc1 [Compound 935] | − (a “−” indicates that the compound has an MIC value greater than 16 micrograms/ml) |
| N=C(N)NCCCNCc1ccc(-n2cc3cc(CCS(=O)(=O)N(CC4CCOCC4)C4CCNCC4)[nH]c3nc2=O)cc1 [Compound 930] | + (a “+” indicates that the compound has an MIC value of 16 micrograms/ml or less) |
| N=C(N)NCCCNCc1ccc(-n2cc3cc(-c4cccc(OC[C@H]5CCNC5)c4)[nH]c3nc2=O)cc1 [Compound 1438] | + (a “+” indicates that the compound has an MIC value of 16 micrograms/ml or less) |
| N=C(N)NCCCNCc1ccc(-n2cc3cc(-c4cc(CNCCN)cc(OC(F)(F)F)c4)[nH]c3nc2=O)cc1 [Compound 2070a] | + (a “+” indicates that the compound has an MIC value of 16 micrograms/ml or less) |
| NCCCNC(=O)c1ccc(-n2cc3cc(-c4ccc(S(=O)(=O)NC5CCNCC5)cc4)[nH]c3nc2=O)cc1 [Compound 892] | + (a “+” indicates that the compound has an MIC value of 16 micrograms/ml or less) |
| N=C(N)NCCCNC(=O)c1ccc(C2N=c3cc(-c4ccc(S(=O)(=O)N(CCCN5CCCCC5)C5CCNCC5)cc4)[nH]c3=NC2=O)cc1 (centres unmarked) [Compound 1017] | + (a “+” indicates that the compound has an MIC value of 16 micrograms/ml or less) |
| N=C(N)NCCCNCc1ccc(-n2cc3cc(-c4cccc(OCC5(CN)CC5)c4)[nH]c3nc2=O)cc1 [Compound 1413] | + (a “+” indicates that the compound has an MIC value of 16 micrograms/ml or less) |
| CS(=O)(=O)NCc1cc(CCCCN)cc(-c2cc3cn(-c4ccc(CNCCCNC(=N)N)cc4)c(=O)nc3[nH]2)c1 [Compound 2090a] | + (a “+” indicates that the compound has an MIC value of 16 micrograms/ml or less) |
| N=C(N)NCCCNCc1ccc(-n2cc3cc(-c4cc(C(=O)NCCCF)cc(N5CCNCC5)c4)[nH]c3nc2=O)cc1 [Compound 997] | + (a “+” indicates that the compound has an MIC value of 16 micrograms/ml or less) |
| N=C(N)NCCCNCc1ccc(-n2cc3cc(CCS(=O)(=O)N(CCC4CCCN4)C4CCNCC4)[nH]c3nc2=O)cc1 (centres unmarked) [Compound 991] | + (a “+” indicates that the compound has an MIC value of 16 micrograms/ml or less) |
| N=C(N)NCCCNCc1ccc(-n2cc3cc(-c4ccc(C(NC5CCNCC5)C(F)(F)F)cc4)[nH]c3nc2=O)cc1 (centres unmarked) [Compound 944] | + (a “+” indicates that the compound has an MIC value of 16 micrograms/ml or less) |
| N=C(N)NCCCOCc1ccc(-c2cn3cc(-c4ccc(C(=O)NC5CCNCC5)cc4)[nH]c3nc2=O)cc1 [Compound 928] | + (a “+” indicates that the compound has an MIC value of 16 micrograms/ml or less) |
| CCn1cc(CCCN(C2CCNCC2)S(=O)(=O)c2ccc(-c3cc4cn(-c5ccc(CNCCCNC(=N)N)cc5)c(=O)nc4[nH]3)cc2)cn1 [Compound 837] | + (a “+” indicates that the compound has an MIC value of 16 micrograms/ml or less) |
| COc1ccc(CN(C2CCNCC2)S(=O)(=O)c2ccc(-c3cc4cn(-c5ccc(C(N)=O)cc5)c(=O)nc4[nH]3)cc2)cc1[N+](=O)[O-] [Compound 1091] | − (a “−” indicates that the compound has an MIC value greater than 16 micrograms/ml) |
| N=C(N)NCCCNC(=O)c1ccc(-n2cc3cc(-c4ccc(S(=O)(=O)N(CCCC5CCCC5)C5CCNCC5)cc4)[nH]c3nc2=O)cc1 [Compound 1011] | + (a “+” indicates that the compound has an MIC value of 16 micrograms/ml or less) |
| N=C(N)NCCCNCc1ccc(-n2cc3cc(-c4cccc(S(=O)(=O)N(CCn5cccn5)C5CCNCC5)c4)[nH]c3nc2=O)cc1 [Compound 1176] | + (a “+” indicates that the compound has an MIC value of 16 micrograms/ml or less) |
| N=C(N)NCCCNCc1ccc(-n2cc3cc(-c4cc(OCC(F)CN)cc(N5CCNCC5)c4)[nH]c3nc2=O)cc1 (centres unmarked) [Compound 2005a] | + (a “+” indicates that the compound has an MIC value of 16 micrograms/ml or less) |
| NC1CCN(Cc2ccc(-n3cc4cc(-c5ccc(S(=O)(=O)N(CCCn6cnnc6)C6CCNCC6)cc5)[nH]c4nc3=O)cc2)C1 (centres unmarked) [Compound 1220] | − (a “−” indicates that the compound has an MIC value greater than 16 micrograms/ml) |
| NC(=O)CCCN(C1CCNCC1)S(=O)(=O)c1ccc(-c2cc3cn(-c4ccc(CNC(=O)CCN=C(N)N)cc4)c(=O)nc3[nH]2)cc1 [Compound 1194] | − (a “−” indicates that the compound has an MIC value greater than 16 micrograms/ml) |
| N#Cc1cc(CCCCN)cc(-c2cc3cn(-c4ccc(CNCCCNC(=N)N)cc4)c(=O)nc3[nH]2)c1 [Compound 2084a] | + (a “+” indicates that the compound has an MIC value of 16 micrograms/ml or less) |
| N=C(N)NCCCNS(=O)(=O)c1ccc(-n2cc3cc(-c4ccc(S(=O)(=O)NC5CCNCC5)cc4)[nH]c3nc2=O)cc1 [Compound 1103] | + (a “+” indicates that the compound has an MIC value of 16 micrograms/ml or less) |
| N=C(N)NCCCNCc1ccc(-c2cn3cc(-c4ccc(C(=O)N5CCC(N)CC5)cc4)[nH]c3nc2=O)cc1 [Compound 808] | + (a “+” indicates that the compound has an MIC value of 16 micrograms/ml or less) |
| N=C(N)NCCCNCc1ccc(-n2cc3cc(-c4cc(OC(F)(F)F)cc([S+]([O-])CCCN)c4)[nH]c3nc2=O)cc1 (centres unmarked) [Compound 2076a] | + (a “+” indicates that the compound has an MIC value of 16 micrograms/ml or less) |

Same assay, conditions: Escherichia coli, ATCC25922, Escherichia coli strain ATCC25922, microdilution; read-out: E. coli ATCC25922 MIC

| MIC | Structure (SMILES) |
| --- | --- |
| < 16 mg/L | N=C(N)NCCCNCc1ccc(-n2cc3cc(-c4ccc(S(=O)(=O)N(CC5CC5)C5CCNCC5)cc4)[nH]c3nc2=O)cc1 [Compound 728] |
| > 16 mg/L | CC(=O)NCCCN1CCCC(c2cc3cn(-c4ccc(CNCCCNC(=N)N)cc4)c(=O)nc3[nH]2)C1 (centres unmarked) [Compound 2021a] |
| < 16 mg/L | NCCCN(CCCN)Cc1ccc(-n2cc3cc(-c4ccc(S(=O)(=O)NC5CCNCC5)cc4F)[nH]c3nc2=O)cc1 [Compound 200] |
| < 16 mg/L | NCCCN(CCCN)Cc1ccc(-n2cc3cc(-c4ccc(S(=O)(=O)N(Cc5ccc(SC(F)(F)F)cc5)C5CCNCC5)cc4)[nH]c3nc2=O)cc1 [Compound 236] |
| < 16 mg/L | Cc1cc(F)cc(CN(C2CCNCC2)S(=O)(=O)c2ccc(-c3cc4cn(-c5ccc(CN(CCCN)CCCN)cc5)c(=O)nc4[nH]3)cc2)c1 [Compound 237] |
| > 16 mg/L | N=C(N)NCCCOCc1ccc(-c2cn3cc(-c4ccc(C(=O)N5CCNCC5)cc4)[nH]c3nc2=O)cc1 [Compound 932] |
| < 16 mg/L | N=C(N)NCCCNCc1ccc(-n2cc3cc(C4CCNC4)[nH]c3nc2=O)cc1 (centres unmarked) [Compound 1229] |
| > 16 mg/L | NCCCCCN1CCN(c2cn3cc(-c4ccc(S(=O)(=O)N5CCNCC5)cc4)[nH]c3nc2=O)CC1 [Compound 900] |
| > 16 mg/L | O=c1nc2[nH]c(-c3ccc(S(=O)(=O)NC4CCNCC4)cc3)cc2cn1-c1cccc(OCc2c[nH]cn2)c1 [Compound 1188] |
| > 16 mg/L | O=c1nc2[nH]c(-c3ccc(S(=O)(=O)NC4CCNCC4)cc3)cc2cn1-c1ccccc1O [Compound 1208] |
| < 16 mg/L | N=C(N)NCCCNC(=O)c1ccc(-n2cc3cc(-c4cccc(OCCCN)c4)[nH]c3nc2=O)cc1 [Compound 1255] |
| > 16 mg/L | COCCOCCOc1cccc(-c2cc3cn(-c4ccc(CNCCCNC(=N)N)cc4)c(=O)nc3[nH]2)c1 [Compound 1101] |
| > 16 mg/L | NCc1ccc(-n2cc3cc(C4C[C@@H](N)[C@@H](CO)O4)[nH]c3nc2=O)cc1 (some centres unmarked) [Compound 1301] |
| > 16 mg/L | NCc1ccc(-n2cc3cc(-c4ccc(S(=O)(=O)N(CCCN5Cc6ccccc6C5)C5CCNCC5)cc4)[nH]c3nc2=O)cc1 [Compound 1065] |
| > 16 mg/L | NCc1ccc(-n2cc3cc(-c4cccc(OCCO)c4)[nH]c3nc2=O)cc1 [Compound 1100] |
| > 16 mg/L | CNCc1ccc(-n2cc3cc(-c4ccc(S(=O)(=O)N(CCCC5CCCC5)C5CCNCC5)cc4)[nH]c3nc2=O)cc1 [Compound 947] |
| < 16 mg/L | CN(C)CCCOc1cccc(-c2cc3cn(-c4ccc(CNCCCNC(=N)N)cc4)c(=O)nc3[nH]2)c1 [Compound 1181] |
| < 16 mg/L | NCCCNCc1ccc(-n2cc3cc(CCN[C@H]4CCCNC4)[nH]c3nc2=O)cc1 [Compound 816] |
| > 16 mg/L | NCCCNCc1ccc(-n2cc3cc(Cc4ccccc4)[nH]c3nc2=O)cc1 [Compound 621] |
| < 16 mg/L | NCCCNCc1ccc(-n2cc3cc(-c4ccc(C(=O)NC5CCNCC5)cc4)[nH]c3nc2=O)cc1 [Compound 227] |

| Structure (SMILES) | MIC |
| --- | --- |
| CN1C2CCC1CC(NC(=O)c1ccc(-c3cc4cn(-c5ccc(CN(CCCN)CCCN)cc5)c(=O)nc4[nH]3)cc1)C2 (centres unmarked) [Compound 206] | < 16 mg/L |

Reference: patent publication US9193731B2, “Antimicrobial compounds and methods of making and using the same” (Melinta Therapeutics, Inc., priority 2009, dated 2015)
